Reference: paper PMC10934261, “Designing Potent Anti-Cancer Agents: Synthesis and Molecular Docking Studies of Thieno[2,3-d][1,2,4]triazolo[1,5-a]pyrimidine Derivatives” (Molecules, 2024)

Assays:
[1] = test system: human prostate PC-3 cancer cell line; test: In vitro cytotoxic screening (MTT assay), PC-3; format: cell-based; conditions: average ± standard deviation
Experimental: (§1) Using human breast MCF-7, colorectal HCT-116, and prostate PC-3 cancer cell lines, preliminary antiproliferative effectiveness of cyclopenta[4,5]thieno[2,3-d][1,2,4]triazolo[1,5-a]pyrimidin-9(6H)-ones 4–16 was established in vitro through MTT assay at different concentrations (100, 50, 25 and 12.5 μM) (Figure 2).
(§2) The cell lines were obtained from Karolinska Center, Department of Oncology and Pathology, Karolinska Institute and Hospital, Stockholm, Sweden. as follows: human breast MCF-7, colorectal HCT-116 and prostate PC-3 cancer cell lines and human skin normal BJ-1 cell line. Exponentially, cells were cultured at a concentration of 10^4 cells/well for 24 h, afterwards fresh medium containing different concentrations of the tested samples was added. Serial two-fold dilution of the tested samples were added using a multichannel pipette. Moreover, all cells were cultivated at 37 °C, 5% CO2 and 95% humidity. Also, incubation of control cells occurred at 37 °C. However, after incubation for 24 h different concentrations of samples (100, 50, 25 and 12.5 µM) were added and the incubation was continued for 48 h, then crystal violet solution 1% was added to each well for 0.5 h to examine the presence of viable cells. After rinsing the wells using water until stain free, 30% glacial acetic acid was added to all wells with shaking the plates on a Microplate reader (TECAN, Inc.) to measure the absorbance at a wavelength of 490 nm. The cytotoxicity was estimated by IC50 in μM, which is the concentration that inhibits 50% of growth of cancer cells. […]
(§3) 1.1. In vitro cytotoxic screening
(§4) The cell lines were obtained from Karolinska Center, Department of Oncology and Pathology, Karolinska Institute and Hospital, Stockholm, Sweden. as follows: human breast MCF-7, colorectal HCT-116 and prostate PC-3 cancer cell lines and human skin normal BJ-1 cell line. Exponentially, cells were placed in 10^4 cells/ well for 24 h, and then add fresh medium which containing different concentration of the tested sample. Serial two-fold dilution of the tested sample were added using a multichannel pipette. Moreover, all cells were cultivated at 37 °C, 5% CO2 and 95% humidity. Also, incubation of control cells occurred at 37 °C. However, after incubation for 24 h different concentrations of sample (100, 50, 25 and 12.5 µM) were added and continued the incubation for 48 h, then, add the crystal violet solution 1% to each well for 0.5 h to examine viable cells. Rinse the wells using water until no stain. After that, add 30% glacial acetic acid to all wells with shaking plates on Microplate reader (TECAN, Inc.) to measure the absorbance, using a test wavelength of 490 nm. Besides, compare the treated samples with the control cell. The cytotoxicity was estimated by IC50 in (μ M), the concentration that inhibits 50% of growth of cancer cell. […]
(§5) The molecular docking simulation of the promising in vitro screened cyclopenta[4,5]thieno[2,3-d][1,2,4]triazolo[1,5-a]pyrimidin-9(6H)-ones 10b and 10e against EGFR and PI3K was done using the Molecular Operating Environment software (MOE-Dock) version 2014.0901. The co-crystallized structures of EGFR and PI3K kinases complexed with their native ligands, erlotinib and quinolone LXX, were downloaded from the protein data bank (PDB codes: 1M17 and 3L54, respectively). All minimizations were performed using MOE until an RMSD gradient of 0.05 kcal∙mol−1Å−1 with MMFF94x force field and the partial charges were automatically calculated. Preparation of the enzyme structures was done for molecular docking using Protonate 3D protocol with the default options in MOE. London dG scoring function and Triangle Matcher placement method were used in the docking protocol. Initially, the original ligands were re-docked into the active binding site of EGFR and PI3K kinases to assess the root-mean-square deviation values. Then, the docking studies of the newly targeted […]

[2] = test system: human breast MCF-7 cancer cell line; test: In vitro cytotoxic screening (MTT assay), MCF-7; format: cell-based; conditions: for Percentage cytotoxicity on MCF-7: average ± standard deviation
Experimental: as §1, §2, §3, §4, §5

[3] = test system: human colorectal HCT-116 cancer cell line; test: In vitro cytotoxic screening (MTT assay), HCT-116; format: cell-based; conditions: average ± standard deviation
Experimental: as §1, §2, §3, §4, §5

| melting point | Structure (SMILES) | Percentage cytotoxicity on PC-3 ([1]; 12.5 µM) | Percentage cytotoxicity on PC-3 ([1]; 25 µM) | Percentage cytotoxicity on PC-3 ([1]; 50 µM) | Percentage cytotoxicity on PC-3 ([1]; 100 µM) | Percentage cytotoxicity on MCF-7 ([2]; 12.5 µM) | Percentage cytotoxicity on MCF-7 ([2]; 25 µM) | Percentage cytotoxicity on MCF-7 ([2]; 50 µM) | Percentage cytotoxicity on MCF-7 ([2]; 100 µM) | Percentage cytotoxicity on HCT-116 ([3]; 12.5 µM) | Percentage cytotoxicity on HCT-116 ([3]; 25 µM) | Percentage cytotoxicity on HCT-116 ([3]; 50 µM) | Percentage cytotoxicity on HCT-116 ([3]; 100 µM) | IC50 ([2]; Homo sapiens, MCF7, MCF-7, 48 h incubation, mean of three values, read-out: IC50 (Mean ± SD) MCF-7) |
| --- | --- | --- | --- | --- | --- | --- | --- | --- | --- | --- | --- | --- | --- | --- |
| > 300 °C | O=c1c2c3c(sc2nc2nc([C@@H](O)[C@@H](O)[C@H](O)[C@H](O)CO)[nH]n12)CCC3 [Compound 11c, 2-((1R,2R,3R,4R)-1,2,3,4,5-pentahydroxypentyl)-1,6,7,8-tetrahydro-9H-cyclopenta[4,5]thieno[2,3-d][1,2,4]triazolo[1,5-a]pyrimidin-9-one] | 0.0±0.005% | 0.0±0.005% | 0.0±0.005% | 8.5±4.5% | 0.0±0.005% | 0.0±0.005% | 16.5±2.1% | 38.7±1.5% | 12.7±1.7% | 19.5±3.7% | 22.3±0.9% | 20.6±5.4% | – |
| 220 to 222 °C | O=c1c2c3c(sc2nc2[nH]c(-c4ccc(Cl)cc4)nn12)CCC3 [Compound 10a, 2-(4-Chlorophenyl)-7,8-dihydro-3H-cyclopenta[4,5]thieno[2,3-d][1,2,4]triazolo[1,5-a]pyrimidin-9(6H)-one] | 20.7±3.9% | 30.7±0.5% | 35.9±0.8% | 40.9±4.1% | 16.5±9.5% | 33.3±0.8% | 44.4±11.2% | 61.4±4.7% | 14.4±2.3% | 17.8±1.7% | 17.9±1.7% | 20.3±2.1% | 60.6 ± 0.45 µM |
| > 300 °C | CC(=O)OC[C@@H](OC(C)=O)[C@H](OC(C)=O)[C@H](OC(C)=O)[C@@H](OC(C)=O)c1nc2nc3sc4c(c3c(=O)n2[nH]1)CCC4 [Compound 12b, (1S,2R,3S,4R)-1-(9-oxo-1,7,8,9-tetrahydro-6H-cyclopenta[4,5]thieno[2,3-d][1,2,4]triazolo[1,5-a]pyrimidin-2-yl)pentane-1,2,3,4,5-pentayl pentaacetate] | 1.5±2.3% | 4.8±1.1% | 7.3±0.9% | 20.6±3.3% | 0.0±0.005% | 5.5±0.6% | 20.8±2.1% | 30.1±7.5% | 0.0±0.005% | 0.0±0.005% | 0.0±0.005% | 13.3±3.1% | – |
| > 300 °C | CC(=O)C/C(C)=N/n1c(N)nc2sc3c(c2c1=O)CCC3 [Compound 8, (E)-2-Amino-3-((4-oxopentan-2-ylidene)amino)-3,5,6,7-tetrahydro-4H-cyclopenta[4,5]thieno[2,3-d]pyrimidin-4-one] | 0.0±0.005% | 0.0±0.005% | 0.0±0.005% | 0.0±0.005% | 30.1±4.1% | 31.9±3.1% | 40.9±7.8% | 45.7±5.9% | 0.0±0.005% | 0.0±0.005% | 0.0±0.005% | 0.0±0.005% | – |
